We go through 18 compounds from patent publication US5132323A, “1,2-diaminocyclohexane-platinum complexes with antitumor activity” (Board of Regents, The University of Texas System, priority 1990, dated 1992).

The subject of one data set is M5076. Put plainly: In vivo antitumor efficacy, M5076. On the set-up: species or system BDF1 mice. The note with it: for % T/C: days 1, 5, 9, 13. The procedure:
(§1) BDF1 mice were inoculated intraperitoneally with 10^5 L121O cells, 0.5 ml of 10% tumor brei or 10^6 M5076 cells using 5 animals in each group. Drug was administered […] on days 1, 5 and 9, except that the group infected with M5076 cells was also injected on day 13. % T/C represents mean survival time treated/mean survival time of the control times 100.
^c BDF1 mice were inoculated i.p. with 10^6 M5076 cells. Mic
received 4 i.p. drug injections on days 1, 5, 9 and 13.
(§2) ^d % T/C = (Mean Survival Time treated/Mean Survival Time control)
^e LTS animals alive 60 days after inoculation of L1210/0 and B16 and
90 days after inoculation B5076.

A further data set deals with L1210/cisplatin. The experiment in a line: In vivo antitumor efficacy, L1210/cisplatin. On the set-up: species or system BDF1 mice. Conditions: for % T/C (mean survival time treated/control × 100): mice inoculated with L1210 cells (Table 6); for % T/C: days 1, 5, 9. The procedure:
as §1
^a BDF1 mice were inoculated i.p. with 10^5 L1210 cells. Mic
received 3 i.p. drug injections days 1, 5, and 9.
as §2
(§3) ^e LTS animals alive 60 days after inoculation of L1210/0 and B16 and […]

In a further data set the test system is B16 melanoma. Put plainly: In vivo antitumor efficacy, B16 melanoma. Conditions: for % T/C: days 1, 5, 9. On the set-up: species or system BDF1 mice. The procedure:
as §1, §2, §3

Data set [1] is described as follows: LD50 of DACH-Pt(II) compounds, intraperitoneal. Type of data set: in vivo. The note with it: i.p., CD1 albino mice.
Data set [2] in a line: In vivo renal and hematological toxicity of DACH-Pt(II) compounds. More on the design: species or system CD1 albino mice; WBC d.5: unit not given here. The note with it: single i.p. LD50 dose; for Body Weight d.5 (% of day 0) / WBC d.5: day 5; for WBC d.5: mean ± S.D. The procedure: CD1 albino mice were administered a single intraperitoneal injection of the LD50 dose of each compound using 5 mice in each group. Five days later each mouse was bled under anesthesia from the axillary vessel. Blood urea nitrogen (BUN) and leucopenia were assessed for each sample.
^a CD1 Albino mice were administered a single i.p. injection of
the LD50 dose of each compound (5 mice/cmpd) and bled under
anesthesia from the axillary vessel 5 days later for blood urea nitrogen
(BUN) measurement and assessment of leucopenia. Results as presented as […]

In another data set the test system is L1210. Put plainly: In vivo antitumor therapy against L1210. On the set-up: species or system BDF1 mice. The note with it: for Long-term Survivors: alive 30 days after tumor inoculation.
The test system of data set [3] is wild-type L1210 leukemic cells. The experiment in a line: In vitro cytotoxicity, growth inhibition of wild-type L1210 leukemic cells. Type of data set: cell-based, murine. Conditions: 72 hours incubation. The procedure:
Wild-type L1210 leukemic cells were grown as a suspension culture in McCoy's 5A medium supplemented with 10% horse serum, glutamine, streptomycin and penicillin at 37° C., 95% relative humidity and 5% CO2. Four ml of cell suspension (10^5 cells/ml) were added to culture tubes and the appropriate amount of drug was added (to yield 0.01, 0.1, 1 or 10 μg/ml final concentration) to the culture tubes. After 72 hours of incubation, the cell concentration in control and experimental cultures were determined with the aid of the Coulter counter model ZBf and the percent of growth inhibition calculated.

Where [4] appears, read: optimal dose 12.5 mg/kg i.p., days 1,5,9.
Where [5] appears, read: optimal dose 50 mg/kg i.p., day 1.
The mark [6] stands for this setting: optimal dose 25 mg/kg i.p., days 1,5,9.
[7] abbreviates: optimal dose 6.25 mg/kg i.p., days 1,5,9.

Turning to “1,1-Cyclobutanedicarboxylato(trans-R,R-DACH)Pt(II).1 1/2H2 O [Compound 11]”, the long term survivor entry in the data set on M5076 (M5076 inoculation (Table 6)) was “one”. The “% T/C (treated/control mean survival time)” value in the data set with M5076 (mice inoculated with M5076 cells (Table 6)) stood at 220%. For the same compound, the “% T/C” value came out at 220% in the data set with M5076 (opt. dose 50 mg/kg i.p.); 118% in the data set with L1210/cisplatin (opt. dose 150 mg/kg i.p.); 104% in the data set on B16 melanoma (opt. dose 50 mg/kg i.p.); 398% with L1210 (optimal dose 6.25 mg/kg i.p., days 1-9); 140% with L1210 (setting [4]); 147% in the data set with L1210 (setting [5]). Also, in the data set with M5076 (opt. dose 50 mg/kg i.p., alive 90 days after inoculation), the LTS is 1/5. In addition, the “% T/C (mean survival time treated/control × 100)” value in the data set on L1210/cisplatin was found to be 118%. Further, in the data set with B16 melanoma (mice inoculated with B16 cells (Table 6)), the “% T/C (mean survival time treated/control x 100)” value turned out to be 104%. In data set [1], this compound gave an LD50 of 280 mg/kg. In data set [2], the “Survivors on d.5” value is reported as 5/5. In addition, the “Body Weight d.5 (% of day 0)” value in data set [2] was 121 % of day 0. The “WBC d.5” value in data set [2] came out at 3.44 ± 1.55. The “Long-term Survivors” value in the data set with L1210 (6.25 mg/kg i.p., days 1-9) is listed as 3/6.
On to `CCN(CC(=O)[O-])CC(=O)[O-].N[C@@H]1CCCC[C@H]1N.O.[Pt+2]` (stereo in doubt) [Compound 1, N-ethyliminodiacetato(trans-R,R-DACH)Pt(II).H2 O], for which the “% T/C (mean survival time treated/control × 100)” value in the data set on L1210/cisplatin came to 324%. In addition, the “% T/C” value in the data set on L1210/cisplatin (opt. dose 12.5 mg/kg i.p.) is listed as 324%; in the data set on L1210 (optimal dose 3.15 mg/kg i.p., days 1-9), 434%; in the data set on L1210 (setting [4]), 324%; in the data set on L1210 (setting [5]) it was 125%. The LD50 in data set [1] is 58 mg/kg. This compound also came in with an ID50 in data set [3] of 0.73 µg/mL. The “Survivors on d.5” value in data set [2] is given as 5/5. In addition, the “Body Weight d.5 (% of day 0)” value in data set [2] is 105 % of day 0. Besides, the “WBC d.5” value in data set [2] was 2.3 ± 0.93. The “Long-term Survivors” value is reported as 4/6 in the data set on L1210 (3.15 mg/kg i.p., days 1-9) and 1/6 in the data set on L1210 (12.5 mg/kg i.p., days 1,5,9).
Consider `N[C@@H]1CCCC[C@H]1N.O.O.O=C([O-])CN(O)CC(=O)[O-].[Pt+2]` (stereo in doubt) [Compound 9, N-hydroxyliminodiacetato(trans-R,R-DACH)Pt(II).2H2 O], for which the ID50 in data set [3] is 0.76 µg/mL. For the same compound, the “% T/C” value is listed as 265% in the data set with L1210 (setting [6]) and 156% in the data set on L1210 (setting [5]).
In turn, `N[C@@H]1CCCC[C@H]1N.O.O=C([O-])C1(C(=O)[O-])CC1.[Pt+2]` (stereo in doubt) [Compound 14, 1,l-Cyclopropanedicarboxylato(trans-R,R-DACH)Pt(II).H2 O] had an ID50 in data set [3] of 0.66 µg/mL.
The same measure, in the same setting: next, `CN(C)CC(=O)[O-].CN(C)CC(=O)[O-].N[C@@H]1CCCC[C@H]1N.O.O.[Pt+2]` (stereo in doubt) [Compound 16, Cis-bis-N,N-dimethylglycinato(trans-R,R-DACH)Pt(II).2H2 O]: 3.5 µg/mL.
Consider `N.N.O=C([O-])C1(C(=O)[O-])CCC1.[Pt+2]` [Carboplatin, reference compound], for which the “% T/C” value with M5076 (opt. dose 40 mg/kg i.p.) came to 150%. In the data set with L1210/cisplatin (opt. dose 90 mg/kg i.p.), the “% T/C” value is reported as 121%. In data set [1], this compound registered a 50% lethal dose (LD50) of 105 mg/kg. Besides, in data set [2], the “Survivors on d.5” value is 5/5 and the “Body Weight d.5 (% of day 0)” value is listed as 95 % of day 0.
As to `CCN1CC(=O)[O][Pt]2([NH]C3CCCCC3[NH]2)[O]C(=O)C1` (stereo not drawn) [Cis-EIDA], the “% T/C” value with L1210/cisplatin (opt. dose 75 mg/kg i.p.) is 262%. In data set [1], this compound had a 50% lethal dose (LD50) of 140 mg/kg. For the same compound, in data set [2], the “Survivors on d.5” value is on record as 3/5, the “Body Weight d.5 (% of day 0)” value is listed as 77 % of day 0 and the “WBC d.5” value stood at 3.25 ± 1.01.
As to `N.N.[Cl][Pt][Cl]` [Cisplatin, reference compound], the “% T/C” value is on record as 200% in the data set with M5076 (opt. dose 3 mg/kg i.p.), 94% in the data set with L1210/cisplatin (opt. dose 5 mg/kg i.p.) and 139% in the data set on B16 melanoma (opt. dose 3 mg/kg i.p.).
Compound `CCCN(CC(=O)[O-])CC(=O)[O-].N[C@@H]1CCCC[C@H]1N.O.O.[Pt+2]` [Compound 2, N-propyliminodiacetato(trans-R,R-DACH)Pt(II).2H2 O] yielded an ID50 in data set [3] of 0.75 µg/mL. In addition, the “% T/C” value in the data set on L1210 (optimal dose 56 mg/kg i.p., day 1) is listed as 129%.
For `CCCCN(CC(=O)[O-])CC(=O)[O-].N[C@@H]1CCCC[C@H]1N.O.O.[Pt+2]` [Compound 3, N-butyliminodiacetato(trans-R,R-DACH)Pt(II).2H2 O], the ID50 in data set [3] was found to be 0.74 µg/mL. Further, in the data set with L1210 (12.5 mg/kg i.p., days 1,5,9), the “Long-term Survivors” value is 2/6. For the same compound, the “% T/C” value was 147% in the data set on L1210 (optimal dose 12.5 mg/kg i.p., day 1) and 318% with L1210 (setting [4]).
On to `CCCCCN(CC(=O)[O-])CC(=O)[O-].N[C@@H]1CCCC[C@H]1N.O.[Pt+2]` [Compound 4, N-amyliminodiacetato(trans-R,R-DACH)Pt(II).H2 O], for which the ID50 in data set [3] is 3.00 µg/mL. Moreover, in the data set on L1210 (25 mg/kg i.p., days 1,5,9), the “Long-term Survivors” value was 2/6. Moreover, the “% T/C” value stood at 227% in the data set with L1210 (setting [6]) and 158% in the data set on L1210 (setting [5]).
Turning to `CC(C)CCN(CC(=O)[O-])CC(=O)[O-].N[C@@H]1CCCC[C@H]1N.[Pt+2]` [Compound 6, N-isoamyliminodiacetato(trans-R,R-DACH)Pt(II)], the figures for the “% T/C” value in the data set with L1210 (setting [4]) and with L1210 (setting [5]) were 150% and 145%, respectively.
For `CCC(C)N(CC(=O)[O-])CC(=O)[O-].N[C@@H]1CCCC[C@H]1N.O.O.[Pt+2]` (stereo not drawn) [Compound 7, N-sec-butyliminodiacetato(trans-R,R-DACH)Pt(II).2H2 O], the ID50 in data set [3] was 0.65 µg/mL. Also, the “Long-term Survivors” value in the data set on L1210 (6.25 mg/kg i.p., days 1,5,9) is given as 2/6. For the same compound, in the data set on L1210 (setting [7]), the “% T/C” value came out at 282%.
In the case of `CC(C)(C)N(CC(=O)[O-])CC(=O)[O-].N[C@@H]1CCCC[C@H]1N.O.O.O.[Pt+2]` [Compound 8, N-ter-butyliminodiacetato(trans-R,R-DACH)Pt(II).3H2 O], the “Long-term Survivors” value in the data set on L1210 (6.25 mg/kg i.p., days 1,5,9) is recorded as 1/6. For the same compound, the “% T/C” value in the data set on L1210 (setting [7]) was determined as 271%.
As to `CC(=CC(=O)[O-])C(=O)[O-].NC1CCCCC1N.O.[Pt+2]` [Compound 10, Citraconato(trans-R,R-DACH)Pt(II).1H2 O], the ID50 in data set [3] is 5.00 µg/mL. The “% T/C” value with L1210 (setting [6]) is recorded as 200%.
As for `CCN1CC(=O)[O][Pt]2([NH]C3CCCCC3[NH]2)[O]C(=O)C1` (stereo not shown) [S,S-EIDA], the “% T/C” value in the data set with L1210/cisplatin (opt. dose 25 mg/kg i.p.) is listed as 344%. Also, in data set [1], the LD50 came to 95 mg/kg. For the same compound, in data set [2], the “Survivors on d.5” value was 5/5, the “Body Weight d.5 (% of day 0)” value is 100 % of day 0 and the “WBC d.5” value stood at 2.63 ± 0.96.
In the case of “Cis-bis-galacturonato(trans-R,R-DACH)Pt(II).2H2 O [Compound 15]”, in data set [3], the ID50 was determined as 0.90 µg/mL. Moreover, the “% T/C” value with L1210 (setting [4]) came out at 238%.
Take “N-isopropyliminodiacetato(trans-R,R-DACH)Pt(II).2H2 O [Compound 5]”: in data set [3], the ID50 was 0.85 µg/mL. In addition, the “Long-term Survivors” value in the data set on L1210 (12.5 mg/kg i.p., days 1,5,9) was 1/6. Further, the “% T/C” value is listed as 324% in the data set on L1210 (setting [4]) and 155% in the data set on L1210 (setting [5]).
